Measured values reported in patent EP0300107A1, “Ester, thioester and amide derivatives of oxolinic acid, process for their synthesis and their therapeutical use” (VETOQUINOL S.A., priority 1987, dated 1989).
Where two headings read alike, the source gives them in different places.

Legend:
[1] = Solubility in water and in usual solvents; conditions: qualitative statement
[2] = Plasma levels after intravenous injection in the dog; design: species or system chien; conditions: in vivo
Method: b/ Détermination des taux plasmatiques après injection intraveineuse chez le chien
Dose administrée : 15 mg/kg en équivalent acide oxolinique TABLEAU IV

[3] = Plasma levels after intramuscular injection in the rat; assay type: in vivo
Method: c/ Détermination des taux plasmatiques après injection par voie intramusculaire chez le rat
Dose administrée : 20 mg/kg en équivalent acide oxolinique TABLEAU V

[4] = Plasma levels after intramuscular injection in the dog; design: species or system chien; conditions: in vivo; for concentration at 0.5 h / concentration at 1 h / concentration at 2 h / concentration at 4 h / concentration at 6 h / concentration at 12 h / concentration at 24 h: dog, im
Method: a/ Détermination des taux plasmatiques après injection par voie intramusculaire chez le chien
Dose administrée : 15 mg/kg en équivalent acide oxolinique (Comparaison avec l'activité pharmacocinétique de l'acide oxolinique) TABLEAU III

[5] = Presence of the active principle in tissues after intramuscular injection in the rat; assay type: in vivo; conditions: i.m., 20 mg/kg en équivalent acide oxolinique
Method: d/ Détermination de la présence du principe actif dans les tissus après injection par voie intramusculaire chez le rat
Dose administrée : 20 mg/kg en équivalent acide oxolinique TABLEAU VI

[6] = Hydrolysis kinetics at room temperature; assay type: physicochemical
From the text: Ainsi par exemple, l'étude cinétique à température ambiante de l'hydrolyse du composé JL 93V (stable en milieu faiblement acide et en milieu neutre) montre qu'il y a libération d'environ 50 % du principe actif (acide oxolinique) après 24 heures d'hydrolyse en milieu hydroxyde de sodium 0,001 M et coupure immédiate de la liaison ester en milieu hydroxyde de sodium 0,1 M. Cette liaison ester, tout comme d'ailleurs la liaison thioester ou amide, apparaît donc comme étant suffisamment labile par hydrolyse pour libérer le principe actif dans l'organisme.

[7] = Acute toxicity, lethal dose 50 in the mouse; conditions: in vivo, souris, read-out: DL 50 (the source's name)
Method: La toxicité des composés selon l'invention a également été étudiée par la mesure de la dose léthale 50 (DL 50) chez la souris et ils se sont révélés être satisfaisants sur ce plan. A titre d'exemple, on notera que pour le composé JL 93V, la DL 50 (souris; voie intraveineuse) est de 240 mg/kg et que la DL 50 (souris; voie orale) est de 1120 mg/kg.

SMILES: CCn1cc(C(=O)O)c(=O)c2cc3c(cc21)OCO3 [Acide oxolinique, acide oxolinique, reference compound]
- solubilité dans l'eau ou les solvants organiques habituellement utilisés en galénique [1]: relativement peu soluble
- concentration at 0.5 h ([2]; chien, i.v., 15 mg/kg en équivalent acide oxolinique, 0,5 h, read-out: Taux plasmatiques): 36800 ng/mL
- concentration at 1 h ([2]; chien, i.v., 15 mg/kg en équivalent acide oxolinique, 1 h, read-out: Taux plasmatiques): 29800 ng/mL
- concentration at 2 h ([2]; chien, i.v., 15 mg/kg en équivalent acide oxolinique, 2 h, read-out: Taux plasmatiques): 22300 ng/mL
- concentration at 6 h ([2]; chien, i.v., 15 mg/kg en équivalent acide oxolinique, 6 h, read-out: Taux plasmatiques): 8890 ng/mL
- concentration at 8 h ([2]; chien, i.v., 15 mg/kg en équivalent acide oxolinique, 8 h, read-out: Taux plasmatiques): 5650 ng/mL
- concentration at 10 h ([2]; chien, i.v., 15 mg/kg en équivalent acide oxolinique, 10 h, read-out: Taux plasmatiques): 3590 ng/mL
- concentration at 24 h ([2]; chien, i.v., 15 mg/kg en équivalent acide oxolinique, 24 h, read-out: Taux plasmatiques): 150 ng/mL
- Taux plasmatiques ([3]; i.m., 20 mg/kg en équivalent acide oxolinique, 6 h): nul
- Taux plasmatiques ([3]; i.m., 20 mg/kg en équivalent acide oxolinique, 24 h): nul
- concentration at 1 h ([3]; in vivo, im, 20 mg/kg en équivalent acide oxolinique, 1 h, read-out: Taux plasmatiques): 785 ng/mL
- concentration at 3 h ([3]; in vivo, im, 20 mg/kg en équivalent acide oxolinique, 3 h, read-out: Taux plasmatiques): 225 ng/mL
- concentration at 0.5 h ([4]; chien, i.m., 15 mg/kg en équivalent acide oxolinique, 0,5 h, read-out: Taux plasmatiques): 6060 ng/mL
- concentration at 1 h ([4]; chien, i.m., 15 mg/kg en équivalent acide oxolinique, 1 h, read-out: Taux plasmatiques): 6550 ng/mL
- concentration at 2 h ([4]; chien, i.m., 15 mg/kg en équivalent acide oxolinique, 2 h, read-out: Taux plasmatiques): 5460 ng/mL
- concentration at 4 h ([4]; chien, i.m., 15 mg/kg en équivalent acide oxolinique, 4 h, read-out: Taux plasmatiques): 3030 ng/mL
- concentration at 6 h ([4]; chien, i.m., 15 mg/kg en équivalent acide oxolinique, 6 h, read-out: Taux plasmatiques): 2470 ng/mL
- concentration at 12 h ([4]; chien, i.m., 15 mg/kg en équivalent acide oxolinique, 12 h, read-out: Taux plasmatiques): 1430 ng/mL
- concentration at 24 h ([4]; chien, i.m., 15 mg/kg en équivalent acide oxolinique, 24 h, read-out: Taux plasmatiques): 980 ng/mL
- Présence dans les tissus (foie, poumons, reins, muscles) ([5]; 1 h): nulle
- Présence dans les tissus (foie, poumons, reins, muscles) ([5]; 3 h): nulle
- Présence dans les tissus (foie, poumons, reins, muscles) ([5]; 6 h): nulle
- Présence dans les tissus (foie, poumons, reins, muscles) ([5]; 24 h): nulle

SMILES: CCOCCOCCOC(=O)c1cn(CC)c2cc3c(cc2c1=O)OCO3 [JL 93V]
- degraded at 24 h ([6]; 0.001 m naoh, room temperature, after 24 heures of hydrolysis in hydroxyde de sodium 0,001 M, read-out: libération du principe actif (acide oxolinique)): ~50%
- stabilité ([6]; milieu faiblement acide and milieu neutre): stable
- coupure de la liaison ester ([6]; room temperature, hydroxyde de sodium 0,1 M): immédiate
- LD50 ([7]; iv, voie intraveineuse): 240 mg/kg
- LD50 ([7]; po, voie orale): 1120 mg/kg
- concentration at 0.5 h ([2]; 15 mg/kg): 33600 ng/mL
- concentration at 1 h ([2]; 15 mg/kg): 30200 ng/mL
- concentration at 2 h ([2]; 15 mg/kg): 23400 ng/mL
- concentration at 6 h ([2]; 15 mg/kg): 10900 ng/mL
- concentration at 8 h ([2]; 15 mg/kg): 8230 ng/mL
- concentration at 10 h ([2]; 15 mg/kg): 6350 ng/mL
- concentration at 24 h ([2]; 15 mg/kg): 1190 ng/mL
- Taux plasmatiques ([3]; in vivo, 20 mg/kg): nul
- aire sous la courbe ([3]; in vivo, 20 mg/kg): plus importante
- concentration at 1 h ([3]; in vivo, im, 20 mg/kg): 15700 ng/mL
- concentration at 3 h ([3]; in vivo, im, 20 mg/kg): 8780 ng/mL
- concentration at 6 h ([3]; in vivo, im, 20 mg/kg): 3420 ng/mL
- concentration at 0.5 h ([4]; 15 mg/kg): 7250 ng/mL
- concentration at 1 h ([4]; 15 mg/kg): 16100 ng/mL
- concentration at 2 h ([4]; 15 mg/kg): 15600 ng/mL
- concentration at 4 h ([4]; 15 mg/kg): 10800 ng/mL
- concentration at 6 h ([4]; 15 mg/kg): 6080 ng/mL
- concentration at 12 h ([4]; 15 mg/kg): 2310 ng/mL
- concentration at 24 h ([4]; 15 mg/kg): 450 ng/mL
- aire sous la courbe (taux en fonction du temps) ([4]; 15 mg/kg): plus importante
